Consider three compounds from article PMC10051798, “Thiosemicarbazide Derivatives Targeting Human TopoIIα and IDO-1 as Small-Molecule Drug Candidates for Breast Cancer Treatment” (International Journal of Molecular Sciences, 2023).

Values after ≈ are worked out from the molar mass of the structure shown. Values joined by “and” are separate entries in the source; they are usually repeats but may differ in a detail not shown here. Identical values can stand only once.

In one data set the test system is MCF-10A cells. Nature of the data set: MTT viability assay, normal breast epithelial cells. The class given is cell-based, human. How it is done: Human breast cancer cells, i.e., MCF-7 (estrogen-dependent breast cancer cells) and MDA-MB-231 (estrogen-independent breast cancer cells), as well as normal human breast epithelial cells (MCF-10A) were purchased from the American Type Culture Collection (ATCC, Manassas, VA, USA). MCF-7 and MDA-MB-231 cells were cultured in DMEM (Sigma Aldrich, St. Louis, MO, USA) supplemented with 10% fetal bovine serum (FBS), penicillin (100 U/mL) and streptomycin (100 μg/mL). MCF-10A cells were cultured in Mammary Epithelial Cell Growth Medium supplemented with BPE, hEGF, insulin, hydrocortisone, GA-1000 (Lonza, Basel, Switzerland), 10% fetal bovine serum (FBS), penicillin (100 U/mL) and streptomycin (100 μg/mL). The cells were grown in T25 Cell Culture EasyFlask (Nunc, Roskilde, Denmark) at 37 °C in a humidified atmosphere of 5% CO2.
MTT assays were performed to evaluate the cytotoxic activity of the investigated compounds (1–3) against MCF-10A cells. Asuspension of cells (1 × 10^5 cells/mL) was distributed onto 96-well plates at a volume of 100 μL/well. After attachment, the cells were treated with increased concentrations of the tested compounds in medium containing 2% FBS, and incubated for 24 h. Then, 15 μL of MTT working solution (5 mg/mL in PBS) was added to each well and the plates were incubated for 3 h. Subsequently, 100 μL of 10% SDS solution was added to each well in order to dissolve the formazan formed. After overnight incubation at 37 °C, the absorbance of the obtained solution was measured at λ= 570 nm using a microplate reader (Epoch, BioTek Instruments, Inc., Winooski, VT, USA). At least two independent experiments were performed in triplicate. IC50 values of the tested compounds were calculated using the IC50 online calculator [27].
On the technique in general: Tetrazolium assays rely on reduction of a dye to a coloured formazan, in cell work by metabolically active cells.

The subject of data set [1] is MCF-7 cells. Nature of the data set: Autophagy Assay (Red kit) flow cytometry, MCF-7. The class given is cell-based, human. Particulars: 24 h. How it is done:
(§1) In order to evaluate the number of autophagosomes and autolysosomes in breast cancer cells incubated with the investigated compounds, anAutophagy Assay (Red kit) was performed (ImmunoChemistry Technologies, Bloomington, MN, USA). In short, the unfixed cells were washed and resuspended in PBS with the added autophagy probe, Red solution. Next, the cells were incubated for 30 min at 37 °C in the dark, washed, resuspended in cellular assay buffer and the provided fixative was added at a volume/volume ratio of 1:5. The samples were measured immediately after preparation by flow cytometry using the BD FACSCanto II system (BD Biosciences Systems, San Diego, CA, USA). The percentage of cells with autophagy was calculated using FACSDiva software (version 6.1.3, BD Biosciences Systems, San Diego, CA, USA).

Data set [2] concerns MDA-MB-231 cells. Nature of the data set: Autophagy Assay (Red kit) flow cytometry, MDA-MB-231. It is filed as cell-based, human. To be noted: 24 h. As to the method:
as §1
For orientation: A flow cytometer gives signals particle by particle.

Data set [3] has as its system MCF-7 cells. Nature of the data set: Cell cycle analysis (PI flow cytometry), MCF-7. The class given is cell-based, human. Particulars: MCF-7, 20 µg/mL, 24 h. As to the method:
Cell cycle analyses of MCF-7 and MDA-MB-231 cells treated with compounds 1–3 and etoposide for 24 h were performed using a FACSCanto II flow cytometer (BD Bioscences Systems, San Diego, CA, USA). After incubation, breast cancer cells were trypsinized and fixed with cold ethanol (70%) and stored overnight at −20 °C. After removing ethanol, the cells were washed three times with PBS, treated with 50 μg/mL of DNase-free RNase A Solution (Promega, Madison, WI, USA) and stained with 100 μg/mL of PI. The results of measurements were analyzed using FCS Express 7 software (De Novo Software, Pasadena, CA, USA).

For data set [4], the target named is T1, MDR1 (p-glycoprotein) in MDA-MB-231 cells (Homo sapiens, UniProt P08183).
T1 construct: endogenous in cells; host or cells: MCF-7 and MDA-MB-231 cells
Nature of the data set: MDR transporter activity assay, MDR1 in MDA-MB-231. The class given is cell-based. To be noted: MDA-MB-231, 20 µg/mL, 24 h. As to the method:
An MDR Assay kit (Abcam, Cambridge, UK) was used following the manufacturer’s instructions. MCF-7 and MDA-MB-231 cells were incubated with compounds 1–3 (10 μg/mL and 20 μg/mL). After 24 h of incubation, the test cells were washed twice with 5 mL of PBS by centrifugation at 1200 rpm for 10 min. The supernatants were discarded and the cells were counted using a Scepter 3.0 handheld automated cell counter (Milipore, Burlington, MA, USA). Then, each of the tested samples was divided into three parts and analyzed. Tomeasure the activity of MDR1, MRP1 and BCRP (tubes 1–12), 5 μL of verapamil (MDR1 inhibitor) was added into tubes 1–3, 5 μL of MK-571 (MRP1 inhibitor) was added into tubes 4–6, 5 μL of noviobiocin (BCRP inhibitor) was added into tubes 7–9 and 125 μL DMEM with 1 μL of DMSO was added into tubes 10–12. Then, the samples were incubated at 37 °C for five minutes. After this time, 125 μL of Efflux Green Detection Reagent was added into tubes 1–12 and the samples were incubated for 30 min at 37 °C. After 25 min of incubation, 5 μL of PI was added to each tube. Thereafter, the samples were centrifuged for 10 min at 1200 rpm. The supernatants were discarded and the cells were resuspended in 500 μL of PBS and run on the flow cytometer immediately. Measurements were conducted on a BD FACSCanto II flow cytometer using FACSDiva software (version 6.1.3, BD Biosciences, San Diego, CA, USA). […] The calculations followed these formulas:MAFMDR1= 100 × (FMDR1 − F0)/FMDR1 MAFMRP= 100 × (FMRP − F0)/FMRP MAFBCRP= 100 × (FBCRP − F0)/FBCRP
• FMDR—MFI with MDR1 inhibitor (verapamil) • FMRP—MFI with MRP inhibitor (MK-571) • FBCRP—MFI with BCRP inhibitor (novobiocin) • F0—MFI without inhibitor
The theoretical range of the MAF values is between 0 and 100.

The subject of data set [5] is MCF-7 cells. Also on record: method as in PMID 36345785. To be noted: MTT; cited from earlier work.
Data set [6] relates to MDA-MB-231 cells. Also on record: method as in PMID 36345785. Particulars: MTT; cited from earlier work.
Data set [7] concerns MCF-7 cells. More on the design: method as in PMID 36345785. Particulars: BrdU assay; cited from earlier work. (Uptake of a labelled nucleoside into DNA is a usual measure of proliferation.)
The next data set concerns the target recombinant CYP2D6 (Homo sapiens, UniProt P10635). Nature of the data set: Vivid CYP2D6 Cyan screening kit. To be noted: 10 µM, positive control.
The test system of data set [8] is MCF-7 cells. Nature of the data set: Annexin V/propidium iodide flow cytometry (apoptosis), MCF-7. To be noted: MCF-7, 20 µg/mL, 24 h. It is filed as cell-based, human. An excerpt:
(§2) Flow cytometry analyses for apoptosis induction by the compounds 1–3 and etoposide wereperformedusing an FITC Annexin V Apoptosis Detection Kit II (BD Pharmingen, San Diego, CA, USA). The rationale of the assay is based on the externalization of phosphatidylserine on the surface of apoptotic cells. In early and late apoptotic cells, the phosphatidylserine translocates into the outer layer of the membrane, which allows annexin V-FITC to attach. Propidium iodide (PI) is, in turn, a fluorescent dye that penetrates into the late apoptotic and necrotic cells with impaired cell membrane integrity. Therefore, using annexin V and PI, it is possible to distinguish four groups of cells: living cells, early apoptotic cells, late apoptotic cells and necrotic cells. MCF-7 and MDA-MB-231 cells were incubated with 10 and 20 µg/mL of compounds 1–3 and etoposide (reference drug) for 24 h. After incubation, the cells were dyed with FITC-labeled annexin V and PI. The analysis was performed on a BD FACS Canto II flow cytometer using FACSDiva software (version 6.1.3, BD Biosciences Systems, San Diego, CA, USA). The equipment was calibrated with BD Cytometer Setup and Tracking Beads (BDBiosciences, San Diego, CA, USA).

Data set [9] deals with MDA-MB-231 cells. Nature of the data set: Annexin V/propidium iodide flow cytometry (apoptosis), MDA-MB-231. The class given is cell-based, human. Particulars: MDA-MB-231, 20 µg/mL, 24 h.
Description: as §2

For the next data set, the system named is caspase-8 in MCF-7 cells. Nature of the data set: FLICA caspase-8 activity flow cytometry, MCF-7. The class given is cell-based, human. Particulars: MCF-7, 20 µg/mL, 24 h. How it is done:
(§3) Caspase-8 and caspase-9 activitiesweremeasured using the FLICA Caspase-8 Assay Kit and FLICA Caspase-9 Assay Kit (ImmunoChemistry Technologies, Bloomington, MN, USA), respectively, according to the manufacturer’s protocol. In brief, MCF-7 and MDA-MB-231 breast cancer cells (1 × 10^6) were washed with cold PBS twice and re-suspended in buffer. Then, 5 μL of diluted FLICA reagent and 2 μL of Hoechst 33,342 were added to 93 μL of cell suspension, mixed by pipetting and incubated for 60 min at 37 °C. After incubation, the cells were washed twice with 400 μL of apoptosis wash buffer and centrifuged at 300× g. After the last wash, the cells were resuspended in 100 μL of apoptosis wash buffer supplemented with 10 μg/mL of PI. Analyses were performed using aBD FACSCanto II flow cytometer, and the results were analyzed with FACSDiva software (version 6.1.3, BD BiosciencesSystems, San Diego, CA, USA). To identify the involvement of caspases in apoptosis induced by compounds 1–3, the investigated breast cancer cells were pretreated with the pan-caspase inhibitor, Z-VAD-FMK (100 µM) (Sigma Aldrich, St. Louis, MO, USA), as described in [28]. The activation of caspases-8 and -9 was detected as described above.

The subject of data set [10] is caspase-8 in MDA-MB-231 cells. Nature of the data set: FLICA caspase-8 activity flow cytometry, MDA-MB-231. It is filed as cell-based, human. To be noted: MDA-MB-231, 20 µg/mL, 24 h. As to the method:
as §3

Sequence of recombinant CYP2D6 (P10635 whole entry): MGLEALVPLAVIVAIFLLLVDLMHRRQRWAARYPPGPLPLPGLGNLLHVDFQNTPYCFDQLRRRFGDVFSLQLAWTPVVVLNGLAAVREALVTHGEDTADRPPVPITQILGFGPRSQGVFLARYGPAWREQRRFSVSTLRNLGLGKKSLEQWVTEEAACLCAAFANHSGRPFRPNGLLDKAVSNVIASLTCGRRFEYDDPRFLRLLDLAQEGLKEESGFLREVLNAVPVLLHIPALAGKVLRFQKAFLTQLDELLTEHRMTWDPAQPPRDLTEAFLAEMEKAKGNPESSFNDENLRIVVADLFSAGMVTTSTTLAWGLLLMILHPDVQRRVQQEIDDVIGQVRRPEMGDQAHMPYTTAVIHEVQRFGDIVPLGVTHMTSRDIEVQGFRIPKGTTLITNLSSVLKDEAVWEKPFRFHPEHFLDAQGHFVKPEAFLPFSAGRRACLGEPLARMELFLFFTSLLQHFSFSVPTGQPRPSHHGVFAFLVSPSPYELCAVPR
T1 sequence (P08183 whole entry): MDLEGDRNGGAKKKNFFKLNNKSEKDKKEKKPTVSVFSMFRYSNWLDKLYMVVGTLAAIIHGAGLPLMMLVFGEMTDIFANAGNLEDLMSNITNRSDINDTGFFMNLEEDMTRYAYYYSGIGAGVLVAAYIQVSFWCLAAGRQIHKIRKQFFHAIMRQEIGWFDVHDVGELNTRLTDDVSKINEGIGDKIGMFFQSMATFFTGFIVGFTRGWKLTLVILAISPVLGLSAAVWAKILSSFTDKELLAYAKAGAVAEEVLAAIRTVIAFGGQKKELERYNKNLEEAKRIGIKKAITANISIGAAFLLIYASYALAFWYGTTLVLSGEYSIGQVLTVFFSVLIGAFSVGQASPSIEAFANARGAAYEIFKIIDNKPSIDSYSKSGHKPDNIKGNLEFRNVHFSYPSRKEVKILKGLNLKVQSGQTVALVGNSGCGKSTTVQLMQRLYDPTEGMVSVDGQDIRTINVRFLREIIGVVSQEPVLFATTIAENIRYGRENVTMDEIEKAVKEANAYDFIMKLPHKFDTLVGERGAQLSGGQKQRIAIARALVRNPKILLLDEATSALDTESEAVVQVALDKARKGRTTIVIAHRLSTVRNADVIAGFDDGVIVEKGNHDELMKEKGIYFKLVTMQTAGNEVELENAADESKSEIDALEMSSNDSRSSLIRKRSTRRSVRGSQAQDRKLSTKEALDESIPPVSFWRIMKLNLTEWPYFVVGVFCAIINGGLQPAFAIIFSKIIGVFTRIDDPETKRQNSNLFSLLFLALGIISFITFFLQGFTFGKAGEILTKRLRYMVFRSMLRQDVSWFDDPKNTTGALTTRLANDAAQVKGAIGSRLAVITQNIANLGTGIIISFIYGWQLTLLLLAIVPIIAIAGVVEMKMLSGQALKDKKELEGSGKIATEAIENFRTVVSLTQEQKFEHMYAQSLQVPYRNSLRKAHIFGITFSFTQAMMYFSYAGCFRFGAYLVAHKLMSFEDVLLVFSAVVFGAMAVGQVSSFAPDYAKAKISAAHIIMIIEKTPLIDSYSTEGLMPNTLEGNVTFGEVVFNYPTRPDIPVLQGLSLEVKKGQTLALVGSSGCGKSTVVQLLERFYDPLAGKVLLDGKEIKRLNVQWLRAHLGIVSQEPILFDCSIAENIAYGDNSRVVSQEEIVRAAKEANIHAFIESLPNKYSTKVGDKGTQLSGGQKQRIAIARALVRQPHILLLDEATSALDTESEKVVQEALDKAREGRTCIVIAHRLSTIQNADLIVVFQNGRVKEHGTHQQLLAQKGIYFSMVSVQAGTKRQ
Description for recombinant CYP2D6: According to these assays, the examined compounds are analyzed by their ability to inhibit the production of a fluorescent signal in the reaction between recombinant CYP3A4 or CYP2D6 isozymes and specific Vivid substrates. The experiments were performed in the endpoint mode of the assay, in which solutions of examined compounds were first combined with the Master Pre-mix. After a short incubation, the background fluorescence of the Master Pre-mix and the examined compounds was measured. Next, a mix of the respective Vivid substrate and NADP^+ was added in order to initiate the enzymatic reaction. After 20 min of incubation, the reaction was terminated using a stop solution and the fluorescence was measured using the recommended (by the manufacturer) excitation and emission wavelengths. […] A reaction mixture without tested compounds was used as a negative control and its fluorescence was designated as 100%. The experiments were run in triplicate and the results were presented as means ± SD.

Regarding `CC(C)c1cccc(C(C)C)c1NC(=S)NNC(=O)Cc1cccc2ccccc12` [Compound 1], the IC50 in the data set with MCF-10A cells (Homo sapiens, MCF-10A, MTT, 24 h) was 25.3 µg/mL and 60.3 µM; with MCF-7 cells [5] it was 23.4 ± 1.12 µM; in the data set with MDA-MB-231 cells [6], 21.9 ± 0.5 µM. Also, the “SIMCF-7 (selectivity index)” value in the data set with MCF-10A cells (IC50 MCF-10A/IC50 MCF-7) came out at 2.57. In addition, the “SIMDA-MB-231 (selectivity index)” value in the data set with MCF-10A cells (IC50 MCF-10A/IC50 MDA-MB-231) came out at 2.75. Besides, the cells undergoing autophagy in the data set on MCF-7 cells [1] (MCF-7, 10 µg/mL) is given as 2.5 ± 0.2%; in the data set on MCF-7 cells [1] (MCF-7, 20 µg/mL) it was 11.5 ± 1.2%; with MDA-MB-231 cells [2] (MDA-MB-231, 10 µg/mL (lower end of printed range)), 3.0 ± 0.2%; in the data set on MDA-MB-231 cells [2] (MDA-MB-231, 20 µg/mL (upper end of printed range)) it was 5.5 ± 0.9%. Besides, the “cells in G2/M phase” value with MCF-7 cells [3] is on record as 33.6%. Also, the “cells in S phase” value in the data set on MCF-7 cells [3] is recorded as 35.9%. Further, the “MAF MDR1” value in data set [4] is reported as less than 20. The “IC50 MCF-7” value with MCF-7 cells [5] was 9.82 ± 0.47 µg/mL (≈ 23.4 µM). Besides, the “IC50 MDA-MB-231” value in the data set on MDA-MB-231 cells [6] is 9.21 ± 0.21 µg/mL (≈ 21.9 µM). Besides, the “antiproliferative activity, times stronger than etoposide” value in the data set on MCF-7 cells [7] was 46 times. Moreover, the “selectivity index (SI), cancer vs normal (non-cancerous) cells” value in the data set on MCF-7 cells [7] is given as 46.8.

Take `C=C[C@H]1C[N@@]2CC[C@H]1C[C@@H]2[C@@H](O)c1ccnc2ccc(OC)cc12` [guanidine]: the “CYP2D6 activity vs. negative control” value on recombinant CYP2D6 came out at 11.08 ± 0.81%.

Consider `COc1cc([C@@H]2c3cc4c(cc3[C@@H](O[C@@H]3O[C@@H]5CO[C@@H](C)O[C@H]5[C@H](O)[C@H]3O)[C@H]3COC(=O)[C@H]23)OCO4)cc(OC)c1O` [etoposide, reference compound], for which the “apoptotic cells (sum of early and late apoptotic cells)” value in the data set on MCF-7 cells [8] and in the data set on MDA-MB-231 cells [9] was “about 8.5%” in each case. The “cells with activated caspase-8” value worked out at 6.73% with caspase-8 in MCF-7 cells and 7.2% in data set [10]. In addition, the “cell population forming autophagosomes and/or autolysosomes” value is listed as “about 1%” with MCF-7 cells [1] (MCF-7, etoposide-treated, concentration not specified) and “about 1%” in the data set with MDA-MB-231 cells [2] (MDA-MB-231, etoposide-treated, concentration not specified).

As usually defined, the IC50 is the midpoint of a concentration-inhibition curve.
